Patent US10689362B2, “Quinoxaline compounds as type III receptor tyrosine kinase inhibitors” (Development Center for Biotechnology, priority 2016, dated 2020)

What was measured:
[1] = molecular target: CSF-1R kinase (Homo sapiens (Human), UniProt P07333); experiment: CSF-1R kinase assay (AlphaScreen); assay type: biochemical; details: class symbol
Description: Inhibition of CSF-1R kinase activity by a test compound disclosed herein was estimated by AlphaScreen (PerkinElmer). […] Reactions were incubated at 30° C. for 45 min and stopped by adding 5 μL of 50 mM EDTA. Analysis of resulting product using an AlphaScreen kit, and counted with Enspire Alpha (PerkinElmer). […] The IC50 values of quinoxaline compounds of this invention against CSF-1R kinase were determined using the GraphPad Prism 5 software.

[2] = molecular target: c-KIT kinase (Homo sapiens (Human), UniProt P10721); experiment: c-KIT kinase assay (radiometric); assay type: biochemical; details: class symbol
Summary of the method: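 Recombinant c-Kit (20 ng) with 2 μg Poly-(Glu4:Tyr1) in MOPS pH 7.0 buffer with MgCl2/MnCl2, 10 μM ATP plus [^33P]-ATP, 4% DMSO final, 60 min at 30° C. Stopped with phosphoric acid, filter-captured and scintillation counted; IC50 from curve fit.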

[3] = molecular target: FLT3 kinase (Homo sapiens (Human), UniProt P36888); experiment: FLT3 kinase assay (radiometric); assay type: biochemical; details: bound
Summary of the method: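 Recombinant FLT3 (5 ng) phosphorylating poly(Glu4:Tyr1) (2 μg) with 10 μM ATP plus [^33P]-ATP in MOPS pH 7.0 buffer, 4% DMSO final, 60 min at 30° C. Reaction stopped with phosphoric acid, filter-captured and scintillation-counted; IC50 derived from dose-response.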

[4] = molecular target: PDGFRβ kinase (Homo sapiens (Human), UniProt P09619); experiment: PDGFRβ kinase assay (radiometric); assay type: biochemical
Summary of the method: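 Radiometric assay: recombinant PDGFRβ with poly(Glu4:Tyr1) in MOPS pH 7.0 buffer containing Mg2+/Mn2+, 10 μM ATP plus [33P]-ATP, and compound at 4% DMSO final. Incubated 60 min at 30° C, stopped with phosphoric acid, filter-captured and scintillation-counted. IC50 from curve fitting.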

[5] = tested on: CSF-1-dependent M-NFS-60 mouse myeloid leukemia cell; experiment: M-NFS-60 cell proliferation assay (CellTiter-96); assay type: cell-based; details: Cytotoxicity, M-NFS-60 cells, 72 hours
Summary of the method: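 Growth inhibition was measured as absorbance at 490 nm after 4 h with CellTiter 96 AQueous One reagent. Beforehand, M-NFS-60 cells (2000/well, CSF-1-dependent) were treated with a compound dilution series for 72 h following overnight plating at 37 °C, 5% CO2.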

[6] = tested on: MV4-11 human acute myeloid leukemia cell with FLT3-ITD mutation; experiment: MV4-11 cell proliferation assay (CellTiter-96); assay type: cell-based; details: Cytotoxicity, MV4-11 cells, 72 hours
Summary of the method: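 Growth inhibition read as absorbance at 490 nm after 4 hours with CellTiter96 AQueous One reagent. Before that, FLT3-ITD-dependent MV4-11 cells (6500 cells/well, overnight at 37° C., 5% CO2) received a rising compound concentration series for 72 hours.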

[7] = tested on: Kasumi-1 human acute myeloid leukemia cell with c-KIT N822K activating mutation; experiment: Kasumi-1 cell proliferation assay (CellTiter-96); assay type: cell-based; details: Cytotoxicity, Kasumi-1 cells, 72 hours
Summary of the method: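 After 72 h of treatment with a compound dilution series, growth of c-KIT N822K-driven Kasumi-1 cells (64000 per well, plated the day before) was read as 490 nm absorbance. This followed a 4 h incubation with CellTiter96 AQueous One reagent.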

[8] = tested on: THP-1 human acute monocytic leukemia cell harboring NRAS G12D mutation; experiment: THP-1 cell proliferation assay (counter screen, CellTiter-96); assay type: cell-based; details: Cytotoxicity, THP-1 cells (counter screen), 72 hours
Summary of the method: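 Growth inhibition read as 490 nm absorbance after 4 h with CellTiter96 AQueous One reagent, following 72 h compound exposure at rising concentrations. THP-1 (NRAS G12D) cells plated at 5000 per well and left overnight at 37 °C, 5% CO2 before dosing.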

[9] = tested on: osteoclast precursors (osteoclast differentiation); experiment: Osteoclast tartrate-resistant acid phosphatase assay; assay type: cell-based; details: 168 h, at 1 μM treatment, 7 days, RANKL and M-CSF, read-out: inhibition activity against osteoclast differentiation
Summary of the method: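 Differentiation inhibition was scored at 1 μM compound in duplicate, using supernatant TRAP activity read at 550 nm with an acid phosphatase kit.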

Sequence of PDGFRβ kinase (P09619 33-1106): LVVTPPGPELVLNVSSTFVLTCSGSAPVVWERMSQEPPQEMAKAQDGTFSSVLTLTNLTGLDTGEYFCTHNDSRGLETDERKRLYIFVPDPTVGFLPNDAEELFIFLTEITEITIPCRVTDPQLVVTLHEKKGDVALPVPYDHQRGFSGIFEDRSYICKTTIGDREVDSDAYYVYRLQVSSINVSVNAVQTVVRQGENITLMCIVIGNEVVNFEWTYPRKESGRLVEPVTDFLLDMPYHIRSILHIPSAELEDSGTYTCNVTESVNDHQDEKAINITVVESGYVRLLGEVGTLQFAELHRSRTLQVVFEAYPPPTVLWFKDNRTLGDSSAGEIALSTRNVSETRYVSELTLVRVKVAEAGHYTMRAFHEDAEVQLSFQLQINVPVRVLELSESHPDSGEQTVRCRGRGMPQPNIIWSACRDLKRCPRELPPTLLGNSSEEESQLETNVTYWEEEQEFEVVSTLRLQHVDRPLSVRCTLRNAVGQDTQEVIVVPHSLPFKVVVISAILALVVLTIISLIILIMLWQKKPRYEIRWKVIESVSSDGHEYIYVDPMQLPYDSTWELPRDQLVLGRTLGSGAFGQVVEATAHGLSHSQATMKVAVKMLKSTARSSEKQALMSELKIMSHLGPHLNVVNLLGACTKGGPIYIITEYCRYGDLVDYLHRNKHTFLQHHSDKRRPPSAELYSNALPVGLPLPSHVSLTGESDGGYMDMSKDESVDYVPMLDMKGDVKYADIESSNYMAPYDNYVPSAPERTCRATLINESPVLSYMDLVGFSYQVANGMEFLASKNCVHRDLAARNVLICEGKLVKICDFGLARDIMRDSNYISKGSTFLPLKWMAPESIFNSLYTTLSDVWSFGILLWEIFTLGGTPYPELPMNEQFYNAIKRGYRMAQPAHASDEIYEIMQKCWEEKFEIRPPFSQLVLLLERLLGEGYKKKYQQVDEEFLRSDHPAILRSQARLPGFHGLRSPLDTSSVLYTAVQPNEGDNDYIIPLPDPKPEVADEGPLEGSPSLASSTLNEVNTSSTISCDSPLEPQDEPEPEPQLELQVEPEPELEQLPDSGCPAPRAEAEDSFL
Sequence of FLT3 kinase (P36888 27-993): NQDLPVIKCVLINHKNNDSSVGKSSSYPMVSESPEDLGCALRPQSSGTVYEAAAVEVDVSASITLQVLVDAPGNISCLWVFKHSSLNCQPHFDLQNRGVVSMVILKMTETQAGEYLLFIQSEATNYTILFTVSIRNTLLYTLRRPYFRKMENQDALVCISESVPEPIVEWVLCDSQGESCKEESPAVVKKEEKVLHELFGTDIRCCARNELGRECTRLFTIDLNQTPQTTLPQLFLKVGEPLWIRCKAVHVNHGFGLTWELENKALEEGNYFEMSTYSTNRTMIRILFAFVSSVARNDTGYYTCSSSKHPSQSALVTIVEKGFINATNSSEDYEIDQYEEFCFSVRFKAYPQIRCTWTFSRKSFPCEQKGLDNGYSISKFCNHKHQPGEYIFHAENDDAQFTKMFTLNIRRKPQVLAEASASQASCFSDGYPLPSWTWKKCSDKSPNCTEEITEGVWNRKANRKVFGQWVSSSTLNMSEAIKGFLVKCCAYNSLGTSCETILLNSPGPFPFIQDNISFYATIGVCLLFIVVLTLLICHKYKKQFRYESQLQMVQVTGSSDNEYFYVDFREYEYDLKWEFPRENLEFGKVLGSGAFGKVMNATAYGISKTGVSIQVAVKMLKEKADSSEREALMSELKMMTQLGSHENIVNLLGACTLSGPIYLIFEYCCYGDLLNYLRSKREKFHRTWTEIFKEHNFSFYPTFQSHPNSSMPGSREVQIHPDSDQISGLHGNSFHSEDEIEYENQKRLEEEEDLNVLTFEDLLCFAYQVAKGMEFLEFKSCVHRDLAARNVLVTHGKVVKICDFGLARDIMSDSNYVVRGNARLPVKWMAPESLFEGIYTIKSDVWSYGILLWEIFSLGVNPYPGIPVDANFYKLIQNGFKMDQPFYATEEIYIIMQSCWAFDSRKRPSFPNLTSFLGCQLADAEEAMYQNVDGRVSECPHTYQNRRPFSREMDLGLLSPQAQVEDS
Sequence of CSF-1R kinase (P07333 20-972): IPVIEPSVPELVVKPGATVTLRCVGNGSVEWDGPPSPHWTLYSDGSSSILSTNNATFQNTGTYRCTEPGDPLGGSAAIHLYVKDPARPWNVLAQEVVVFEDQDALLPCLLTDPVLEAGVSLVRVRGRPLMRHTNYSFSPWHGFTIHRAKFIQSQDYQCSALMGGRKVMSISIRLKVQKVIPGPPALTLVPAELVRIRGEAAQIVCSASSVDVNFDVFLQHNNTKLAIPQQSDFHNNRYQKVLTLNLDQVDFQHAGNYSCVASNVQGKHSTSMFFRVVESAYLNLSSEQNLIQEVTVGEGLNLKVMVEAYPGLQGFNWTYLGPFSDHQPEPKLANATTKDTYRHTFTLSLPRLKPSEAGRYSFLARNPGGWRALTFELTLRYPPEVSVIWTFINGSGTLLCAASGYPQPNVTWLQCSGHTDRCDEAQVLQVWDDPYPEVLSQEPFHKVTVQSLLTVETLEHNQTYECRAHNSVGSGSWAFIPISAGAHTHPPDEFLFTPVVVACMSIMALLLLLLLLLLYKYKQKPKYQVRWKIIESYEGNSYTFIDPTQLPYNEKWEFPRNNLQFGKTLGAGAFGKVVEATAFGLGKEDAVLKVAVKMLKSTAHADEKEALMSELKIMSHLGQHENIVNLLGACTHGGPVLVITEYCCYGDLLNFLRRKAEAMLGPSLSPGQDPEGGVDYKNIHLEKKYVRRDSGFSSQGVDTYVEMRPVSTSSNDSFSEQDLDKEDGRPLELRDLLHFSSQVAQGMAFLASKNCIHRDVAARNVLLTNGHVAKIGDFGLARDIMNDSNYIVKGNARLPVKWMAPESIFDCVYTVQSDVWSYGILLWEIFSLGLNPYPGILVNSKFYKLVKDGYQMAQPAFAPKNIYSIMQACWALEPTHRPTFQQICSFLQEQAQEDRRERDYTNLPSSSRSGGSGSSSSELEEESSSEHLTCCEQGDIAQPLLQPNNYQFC
Sequence of c-KIT kinase (P10721 26-976): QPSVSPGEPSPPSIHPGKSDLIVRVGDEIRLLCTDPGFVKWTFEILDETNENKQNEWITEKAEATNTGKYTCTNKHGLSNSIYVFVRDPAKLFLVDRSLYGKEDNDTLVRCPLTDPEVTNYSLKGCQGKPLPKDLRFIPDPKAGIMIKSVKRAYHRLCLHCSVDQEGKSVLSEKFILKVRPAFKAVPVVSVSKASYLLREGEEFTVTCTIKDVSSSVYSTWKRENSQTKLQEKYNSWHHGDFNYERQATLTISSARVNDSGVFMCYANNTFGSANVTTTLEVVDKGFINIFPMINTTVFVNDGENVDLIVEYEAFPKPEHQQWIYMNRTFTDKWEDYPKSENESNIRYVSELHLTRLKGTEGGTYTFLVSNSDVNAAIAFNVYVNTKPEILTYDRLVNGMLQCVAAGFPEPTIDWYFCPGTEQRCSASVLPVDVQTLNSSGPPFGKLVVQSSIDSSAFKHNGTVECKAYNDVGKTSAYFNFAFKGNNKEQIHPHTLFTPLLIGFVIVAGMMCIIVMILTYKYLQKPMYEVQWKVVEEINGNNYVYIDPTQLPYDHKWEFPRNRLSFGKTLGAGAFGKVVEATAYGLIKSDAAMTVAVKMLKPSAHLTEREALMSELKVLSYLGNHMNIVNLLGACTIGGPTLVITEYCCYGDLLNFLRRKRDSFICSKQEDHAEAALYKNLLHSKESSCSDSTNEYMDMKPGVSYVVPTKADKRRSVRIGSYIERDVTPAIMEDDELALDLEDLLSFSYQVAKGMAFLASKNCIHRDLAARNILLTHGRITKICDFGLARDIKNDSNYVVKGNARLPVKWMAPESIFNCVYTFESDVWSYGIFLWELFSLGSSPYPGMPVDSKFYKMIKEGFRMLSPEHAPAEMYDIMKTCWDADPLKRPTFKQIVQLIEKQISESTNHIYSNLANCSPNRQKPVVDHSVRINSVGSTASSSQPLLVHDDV

SMILES | IC50 [1] | IC50 [2] | IC50 [3] | IC50 ([4]; bound) | IC50 [5] | IC50 [6] | IC50 [7] | IC50 [8] | inhibition at 1 µM [9] | IC50 ([4]; class symbol)
COc1ccc(COc2ccc(Nc3ccc4ncc(N5CCOCC5)nc4c3)cc2OC)cc1 [Example 24, N-(3-methoxy-4-((4-methoxybenzyl)oxy)phenyl)-3-morpholinoquinoxalin-6-amine] | < 100 nM | < 100 nM | > 1000 nM | > 1000 nM | < 300 nM | 1000 to 10000 nM | < 300 nM | > 10000 nM | > 50% | 
COc1ccc(COc2ccc(Nc3ccc4ncc(N5CCN(C(C)=O)CC5)nc4c3C#N)cc2OC)cc1 [Example 72, 3-(4-acetylpiperazin-1-yl)-6-((3-methoxy-4-((4-methoxybenzyl)oxy)phenyl)amino)quinoxaline-5-carbonitrile] | < 100 nM | < 100 nM | > 1000 nM |  | < 300 nM | > 10000 nM | < 300 nM | > 10000 nM | > 50% | 300 to 1000 nM
COc1cc(Nc2ccc3ncc(N4CCOCC4)nc3c2C#N)ccc1OCc1cnn(CC2CC2)c1 [Example 141, 6-((4-((1-(cyclopropylmethyl)-1H-pyrazol-4-yl)methoxy)-3-methoxyphenyl)amino)-3-morpholinoquinoxaline-5-carbonitrile] | < 100 nM | < 100 nM | > 1000 nM |  | < 300 nM | 1000 to 10000 nM | < 300 nM | > 10000 nM | > 50% | 300 to 1000 nM
COc1ccc(COc2ccc(Oc3ccc4ncc(N5CCOCC5)nc4c3C#N)cc2OC)cc1 [Example 27, 6-(3-methoxy-4-((4-methoxybenzyl)oxy)phenoxy)-3-morpholinoquinoxaline-5-carbonitrile] | < 100 nM | 100 to 300 nM | > 1000 nM | > 1000 nM | < 300 nM | > 10000 nM | < 300 nM | > 10000 nM | > 50% | 
COc1cc(Nc2ccc3ncc(N4CCOCC4)nc3c2C#N)ccc1OCc1ccc(C(C)C)nc1 [Example 103, 6-((4-((6-isopropylpyridin-3-yl)methoxy)-3-methoxyphenyl)amino)-3-morpholinoquinoxaline-5-carbonitrile] | < 100 nM | < 100 nM | > 1000 nM | > 1000 nM | < 300 nM | 1000 to 10000 nM | < 300 nM | > 10000 nM | > 50% | 
COc1ccc(COc2ccc(Nc3ccc4ncc(N5CCCC5)nc4c3C#N)cc2OC)cc1 [Example 62, 6-((3-methoxy-4-((4-methoxybenzyl)oxy)phenyl)amino)-3-(pyrrolidin-1-yl)quinoxaline-5-carbonitrile] | < 100 nM | < 100 nM | > 1000 nM |  | < 300 nM | > 10000 nM | < 300 nM | > 10000 nM | > 50% | 300 to 1000 nM
COCCN1CCN(c2cnc3ccc(Nc4ccc(OCc5ccc(C)nc5)c(OC)c4)c(C#N)c3n2)CC1 [Example 100, 6-((3-methoxy-4-((6-methylpyridin-3-yl)methoxy)phenyl)amino)-3-(4-(2-methoxyethyl)piperazin-1-yl)quinoxaline-5-carbonitrile] | < 100 nM | 100 to 300 nM | > 1000 nM | > 1000 nM | < 300 nM | 1000 to 10000 nM | 300 to 1000 nM | > 10000 nM | > 50% | 
COc1cc(Nc2ccc3ncc(N4CCOCC4)nc3c2C#N)ccc1OCc1ccc2c(c1)OCO2 [Example 81, 6-((4-(benzo[d][1,3]dioxol-5-ylmethoxy)-3-methoxyphenyl)amino)-3-morpholinoquinoxaline-5-carbonitrile] | < 100 nM | 300 to 1000 nM | > 1000 nM | > 1000 nM | < 300 nM | > 10000 nM | > 10000 nM | > 10000 nM | > 50% | 
COc1ccc(COc2ccc(Nc3ccc4ncc(N5CCOCC5)nc4c3C#N)cc2OC)cc1 [Example 16, 6-((3-methoxy-4-((4-methoxybenzyl)oxy)phenyl)amino)-3-morpholinoquinoxaline-5-carbonitrile] | < 100 nM | < 100 nM | > 1000 nM | > 1000 nM | < 300 nM | > 10000 nM | < 300 nM | > 10000 nM | > 50% | 
COc1ccc(COc2ccc(Nc3ccc4ncc(N5CCC(COC(C)=O)CC5)nc4c3C#N)cc2OC)cc1 [Example 71, (1-(8-cyano-7-((3-methoxy-4-((4-methoxybenzyl)oxy)phenyl)amino)quinoxalin-2-yl)piperidin-4-yl)methyl acetate] | < 100 nM | < 100 nM | > 1000 nM | > 1000 nM | < 300 nM | > 10000 nM | < 300 nM | > 10000 nM | > 50% | 
COc1ccc(COc2ccc(Nc3ccc4ncc(N5CCOCC5)nc4c3C#N)cc2OC)cn1 [Example 50, 6-((3-methoxy-4-((6-methoxypyridin-3-yl)methoxy)phenyl)amino)-3-morpholinoquinoxaline-5-carbonitrile] | < 100 nM | 100 to 300 nM | > 1000 nM | > 1000 nM | < 300 nM | > 10000 nM | 300 to 1000 nM | > 10000 nM | > 50% | 
COc1ccc(COc2ccc(Nc3ccc4ncc(NC5CCN(Cc6ccccc6)CC5)nc4c3C#N)cc2OC)cc1 [Example 77, 3-((1-benzylpiperidin-4-yl)amino)-6-((3-methoxy-4-((4-methoxybenzyl)oxy)phenyl)amino)quinoxaline-5-carbonitrile] | < 100 nM | 300 to 1000 nM | > 1000 nM | > 1000 nM | 300 to 1000 nM | 1000 to 10000 nM | 1000 to 10000 nM | 1000 to 10000 nM | > 50% | 
COc1cc(Nc2ccc3ncc(N4CCOCC4)nc3c2C#N)ccc1OCc1ccc(OC(F)(F)F)cc1 [Example 32, 6-((3-methoxy-4-((4-(trifluoromethoxy)benzyl)oxy)phenyl)amino)-3-morpholinoquinoxaline-5-carbonitrile] | < 100 nM | < 100 nM | > 1000 nM |  | < 300 nM | 1000 to 10000 nM | 300 to 1000 nM | > 10000 nM | > 50% | 100 to 300 nM
COc1ccc(COc2ccc(Nc3ccc4ncc(N(C)C)nc4c3C#N)cc2OC)cn1 [Example 137, 3-(dimethylamino)-6-((3-methoxy-4-((6-methoxypyridin-3-yl)methoxy)phenyl)amino)quinoxaline-5-carbonitrile] | < 100 nM | < 100 nM | > 1000 nM | > 1000 nM | < 300 nM | 1000 to 10000 nM | 300 to 1000 nM | > 10000 nM | > 50% | 
COc1cc(Nc2ccc3ncc(N4CCOCC4)nc3c2C#N)ccc1OCc1ccc(C#N)cc1 [Example 64, 6-((4-((4-cyanobenzyl)oxy)-3-methoxyphenyl)amino)-3-morpholinoquinoxaline-5-carbonitrile] | < 100 nM | < 100 nM | > 1000 nM | > 1000 nM | < 300 nM | 1000 to 10000 nM | 300 to 1000 nM | > 10000 nM | > 50% | 
